Patent US20240400572A1, “COMPOUNDS AND METHODS FOR TREATING CANCERS THAT ARE MGMT DEFICIENT REGARDLESS OF MMR STATUS” (Yale University, priority 2021, published 2024)
Entries after “also recorded” stand apart in the source; their conditions may differ.

Tests used:
[1] = test system: LN229 MGMT+/−, MMR+/− cells; test: Micronuclei analysis; type: cell-based, human; settings: 20 μM, 48 h
Excerpt: Micronuclei Analysis. An automated image analysis pipeline was developed by YCMD using InCell Analyzer software to quantify micronuclei formation. Nuclei and micronuclei were segmented based on Hoechst nucleic acid dye staining channel. A perinuclear margin was applied around the nuclei to approximate the extent of the cytoplasm and identify micronuclei associated with the parent nucleus. Cells with nuclei associated with at least 1 micronucleus were considered positive.

[2] = test system: LN229 MGMT−/MMR+ and MGMT−/MMR− cells; test: IR alkaline comet assay; type: cell-based, human
Protocol: IR Alkaline Comet Assay. Assay was performed utilizing the CometAssay Kit (Trevigen) according to the alkaline assay protocol, with the addition of slide irradiation post-lysis. Cells were trypsinized, washed with 1×PBS, added to melted Comet LMAgarose (Trevigen), and spread on Trevigen CometSlides at a density of 1000 cells per sample in 50 μL. Lysis solution (Trevigen) with 10% DMSO was added overnight at 4° C. Slides were removed from lysis buffer and irradiated to 0 or 10 Gy using an XRAD 320 X-Ray System (Precision X-Ray) at 320 kV, 12.5 mA, and 50.0 cm SSD, with a 2 mm Al filter and 20 cm×20 cm collimator. Slides were then placed in alkaline buffer (200 mM NaOH, 1 mM EDTA) for 45 min, followed by electrophoresis in 850 mL alkaline buffer for 45 min at 4° C. Slides were washed and stained with SYBR gold (Invitrogen) per Trevigen assay protocol. Slides were imaged on a Cytation 3 imaging reader (BioTek), and comets were analyzed using CometScore 2.0 software (TriTek).
We used a well-established comet assay adapted for ICL detection to determine if ICLs were formed in MGMT− cells treated with KL-50 (4a) (FIG. Z3, A and B). In this assay, cells were sequentially exposed to genotoxins and ionizing radiation, and then analyzed by single cell alkaline gel electrophoresis. Attenuation of the IR-induced comet tail is indicative of ICL formation.

[3] = test system: LN229 MGMT−/MMR− intracranial tumors; test: Intracranial tumor study; type: in vivo, mouse; settings: 25 mg/kg IP M-F×1 week as printed

Cn1nnc2c(C(N)=O)ncn2c1=O [TMZ, temozolomide, reference compound]
micronuclei formation (in words) [1]: smaller increases in G1-phase foci and micronuclei formation at 48 h in MGMT−/MMR+ cells; also recorded: did not observe foci induction or micronuclei formation in MGMT−/MMR− cells
effect on IR-induced comet tail, ICL detection (in words) ([2]; MGMT−/MMR+ cells, 200 μM for 24 h, 10 Gy): did not reduce DNA migration following IR
comet tailing in the absence of IR (in words) ([2]; MGMT−/MMR+ cells, TMZ and KL-50 200 μM, MMC 0.1 or 50 μM): induced tailing
DNA damage in unirradiated samples (in words) ([2]; MGMT−/MMR− cells, 200 μM, 2, 8 or 24 h, 0 Gy): induced maximal damage at 2 h, which decreased over time
rate of ICL formation, DNA mobility after IR (in words) ([2]; MGMT−/MMR− cells, 200 μM, 2, 8 or 24 h, 10 Gy): did not induce a statistically significant decrease in DNA migration within 24 h
intracranial tumor growth by BLI (in words) [3]: only transiently suppressed tumor growth
